Source: US10330672B2, “Method for screening activator of mitochondrial activity” (INTELLIGENT SYNTHETIC BIOLOGY CENTER, priority 2015, dated 2019)

Columns and labels:
[1] = test system: INS-1 cells; test: Intracellular ATP amount by luciferase assay in INS-1 cells; format: cell-based; conditions: 10 μM, 2 hours, vs DMSO control
Method: (§1) Initially, the INS-1 cells, which are insulin-secreting cells, were cultured in a cell incubator (37° C., 5% CO2, RPMI medium, 10% FBS), were treated with 10 μM of gypenoside 75, ginsenoside F1, ginsenoside Rg3, ginsenoside Rb2, or ginsenoside Rb3 for 2 hours, and the intracellular ATP amount and mitochondrial membrane potential were measured. For the control group, cells treated with DMSO were used.
Next, the amount of ATP was measured using luciferase. As the fluorescence by activation of luciferase depends on the amount of ATP, the intracellular ATP amount can be measured by measuring the level of the fluorescence emission.
Specifically, the INS-1 cells treated with each of the above materials were lysed through freezing-thawing and ultrasonication treatments to obtain a cell lysate. Luciferase and luciferin were added to the obtained cell lysate above to induce fluorescence, and the levels of the fluorescence were quantified and compared (FIG. 1).

[2] = test system: INS-1 cells; test: Mitochondrial membrane potential by TMRM staining and FACS in INS-1 cells; format: cell-based; conditions: 10 μM, 2 hours, TMRM staining, vs DMSO control
Method: as §1
In the final stage, the mitochondrial membrane potential was measured by tetramethylrhodamine methyl ester (TMRM) staining. As the level of the TMRM staining increases proportionately to the mitochondrial membrane potential, the intracellular mitochondrial membrane potential can be measured by measuring the level of the TMRM staining.
Specifically, the INS-1 cells treated with each of the above materials were stained with TMRM, and applied to fluorescence-activated cell sorting (FACS). Then, the level of the staining was quantified, analyzed, and compared (FIG. 2).

CC(C)=CCC[C@](C)(O[C@@H]1O[C@H](CO[C@@H]2O[C@H](CO)[C@@H](O)[C@H](O)[C@H]2O)[C@@H](O)[C@H](O)[C@H]1O)[C@H]1CC[C@]2(C)[C@@H]1[C@H](O)C[C@@H]1[C@@]3(C)CC[C@H](O)C(C)(C)[C@@H]3CC[C@]12C [gypenoside 75]
increase of intracellular ATP amount compared with the control group [1]: 50%
increase of intracellular mitochondrial membrane potential compared with the control group [2]: 40%
